Laboratory results from PMC12400753 (Respiratory Research, 2025).
pIC50: −log10 of the molar value.

Experiments:
Type in all cases: cell-based
human LPAR2 = target: T1, human LPAR2 (Homo sapiens, UniProt Q9HBW0); test: LPA-induced calcium mobilization in transiently transfected HEK293T cells; settings: 3 h preincubation; LPA at EC80 5 µM
T1 construct: host or cells: HEK293T
Protocol: (§1) We had previously assessed selectivity against LPAR2 and 3 [11]. […] Human LPAR1-6 plasmids were each transiently transfected into HEK293T cells and the EC80 (effective concentration producing 80% maximal effect) for LPA activation empirically determined. Selectivity was then tested in a concentration response paradigm using a 3 h preincubation followed by LPA-induced calcium mobilization.
(§2) Plasmids containing human LPAR1-6 were obtained from Origene (Rockville, MD) and maxiprepped at Eton Biosciences (San Diego, CA). Transfection mix was prepared by adding Fugene 6 transfection mix to serum free media and 0.1 µg plasmid. After a 20 m incubation, HEK293T cells (ATCC, Manassas VA) were lifted with Accutase and added to the Fugene mix at a final concentration of 0.5 × 10^4 cells/well. Cells were then plated on black clear bottom 96-well plates and incubated overnight in a 37 °C, 5% CO2 incubator. […] During the last hour of incubation, media was removed and replaced with Fluo-4 NW calcium assay dye prepared as per manufacturer’s recommendations in assay buffer. Agonist plates containing LPA were prepared for individual receptor subytpes using their respective EC80. Calcium mobilization was measured as per manufacturer’s directions on a Flexstation 3 (Molecular Devices, San Jose, CA).

human LPAR3 = target: T2, human LPAR3 (Homo sapiens, UniProt Q9UBY5); test: as above; settings: 3 h preincubation; LPA at EC80 10 µM
T2 construct: host or cells: HEK293T
T2 sequence (Q9UBY5 1-353): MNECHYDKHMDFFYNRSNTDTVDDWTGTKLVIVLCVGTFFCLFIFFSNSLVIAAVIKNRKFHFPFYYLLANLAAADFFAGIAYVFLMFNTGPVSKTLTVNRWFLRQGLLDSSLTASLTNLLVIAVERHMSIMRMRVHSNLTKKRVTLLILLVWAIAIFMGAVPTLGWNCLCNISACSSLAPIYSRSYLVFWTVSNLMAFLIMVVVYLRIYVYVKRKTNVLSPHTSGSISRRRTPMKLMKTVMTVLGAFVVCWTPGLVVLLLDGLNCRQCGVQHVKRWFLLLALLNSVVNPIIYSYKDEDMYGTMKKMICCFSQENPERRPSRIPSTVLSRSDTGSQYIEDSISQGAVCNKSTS
Protocol: as §1, §2

human LPAR4 = target: T3, human LPAR4 (Homo sapiens, UniProt Q99677); test: as above; settings: 3 h preincubation; LPA at EC80 10 µM
T3 construct: host or cells: HEK293T
Protocol: as §1, §2

human LPAR5 = target: T4, human LPAR5 (Homo sapiens, UniProt Q9H1C0); test: as above; settings: 3 h preincubation; LPA at EC80 1 µM
T4 construct: host or cells: HEK293T
Protocol: as §1, §2

human LPAR6 = target: T5, human LPAR6 (Homo sapiens, UniProt P43657); test: as above; settings: 3 h preincubation; LPA at EC80 13 µM
T5 construct: host or cells: HEK293T
T5 sequence (P43657 1-344): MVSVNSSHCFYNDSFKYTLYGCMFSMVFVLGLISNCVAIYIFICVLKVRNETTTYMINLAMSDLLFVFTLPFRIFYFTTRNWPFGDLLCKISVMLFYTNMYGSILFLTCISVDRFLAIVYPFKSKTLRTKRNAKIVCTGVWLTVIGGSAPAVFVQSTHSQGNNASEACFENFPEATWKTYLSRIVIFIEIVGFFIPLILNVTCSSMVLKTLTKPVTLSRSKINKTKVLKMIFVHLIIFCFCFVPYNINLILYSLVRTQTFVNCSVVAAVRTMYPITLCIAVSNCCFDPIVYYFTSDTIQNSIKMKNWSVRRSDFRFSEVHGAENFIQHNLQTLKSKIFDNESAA
Protocol: as §1, §2

[1] = test system: human precision cut lung slices from donors with pulmonary fibrosis; test: Fibrotic marker mRNA (qPCR) in cryopreserved PCLS from donors with pulmonary fibrosis; settings: PIPE-791, 6 days, 6 donors
Excerpt: Slices were snap frozen and processed for transcript analysis by quantitative PCR. […] Concurrently, we evaluated two well-established, clinical stage antifibrotic mechanisms in this setting: an αvβ1/6 inhibitor (bexotegrast, PLN-74809) and a PDE4B inhibitor (nerandomilast, BI 1015550).
(§3) Precision cut lung slices were obtained from Anabios (San Diego, CA) and collected in accordance with their ethics policy (https://anabios.com/ethics-statement/). Donor demographics are available in Additional File 1. Slices were thawed as per vendor instructions. Briefly, PCLS were thawed at 37 °C then transferred to media consisting of DMEM/F12, Antibiotic-Antimytotic, and Penicillin-Streptomycin. PCLS were gently rinsed then transferred to a larger dish. A small tissue sample was excised with a scalpel for immunohistochemistry and qPCR characterization. […] Final concentration of DMSO was 0.1%. Media and compound were replaced every two days for a total of 6 days. At the end of the experiment, slices were collected and snap frozen. Quantitative PCR: RNA was extracted using RNEasy columns. RNA was reverse transcribed using qScript XLT per manufacturer’s instructions. Genes of interest were assessed by qPCR using Perfecta SYBR Green on a StepOne Plus Thermocycler (ABI). Parameters were as follows: 95 °C 30 s, then 45 cycles of 95 °C for 5 s and 60 °C for 30 s.

[2] = test system: normal, non-fibrotic human PCLS; test: Fibrotic marker mRNA (qPCR) in normal PCLS; settings: n=5 donors
Protocol: as §3

LPAR1 = LPAR1 (Homo sapiens, UniProt Q92633); test: LPA-induced calcium mobilization in transiently transfected HEK293T cells; design: host or cells: HEK293T; settings: 3 h preincubation; LPA at EC80 5 µM
Protocol: as §1, §2

T1 sequence (Q9HBW0 whole entry): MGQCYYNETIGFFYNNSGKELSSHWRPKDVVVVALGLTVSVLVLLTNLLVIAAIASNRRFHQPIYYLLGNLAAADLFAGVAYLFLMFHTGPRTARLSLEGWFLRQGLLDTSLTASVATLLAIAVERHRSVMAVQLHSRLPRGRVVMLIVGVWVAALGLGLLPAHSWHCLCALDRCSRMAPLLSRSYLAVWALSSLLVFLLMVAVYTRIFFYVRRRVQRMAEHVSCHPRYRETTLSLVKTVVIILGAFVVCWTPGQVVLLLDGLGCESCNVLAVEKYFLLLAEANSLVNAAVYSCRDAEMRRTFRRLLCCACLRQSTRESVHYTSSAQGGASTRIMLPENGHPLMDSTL
T3 sequence (Q99677 whole entry): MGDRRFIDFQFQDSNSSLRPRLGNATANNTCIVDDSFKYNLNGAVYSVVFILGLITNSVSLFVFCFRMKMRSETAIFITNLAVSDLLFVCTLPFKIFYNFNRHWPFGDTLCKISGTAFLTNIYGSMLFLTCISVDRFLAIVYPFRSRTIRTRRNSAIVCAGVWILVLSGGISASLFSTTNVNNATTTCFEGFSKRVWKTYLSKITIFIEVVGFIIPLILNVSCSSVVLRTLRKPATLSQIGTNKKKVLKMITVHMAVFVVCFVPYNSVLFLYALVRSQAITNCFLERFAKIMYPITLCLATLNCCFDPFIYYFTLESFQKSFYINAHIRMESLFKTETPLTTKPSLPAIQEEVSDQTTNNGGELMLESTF
T4 sequence (Q9H1C0 whole entry): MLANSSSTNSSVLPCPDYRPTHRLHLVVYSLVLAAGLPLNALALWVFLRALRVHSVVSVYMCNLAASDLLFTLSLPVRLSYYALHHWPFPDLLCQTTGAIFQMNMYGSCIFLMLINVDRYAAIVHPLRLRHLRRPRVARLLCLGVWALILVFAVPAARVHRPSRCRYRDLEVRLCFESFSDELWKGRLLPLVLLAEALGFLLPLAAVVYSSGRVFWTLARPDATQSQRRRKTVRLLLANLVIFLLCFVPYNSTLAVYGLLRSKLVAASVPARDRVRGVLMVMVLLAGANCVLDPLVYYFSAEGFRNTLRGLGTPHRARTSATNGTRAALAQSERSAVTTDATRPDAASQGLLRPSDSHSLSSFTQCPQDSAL
Chain of LPAR1 (Q92633 whole entry): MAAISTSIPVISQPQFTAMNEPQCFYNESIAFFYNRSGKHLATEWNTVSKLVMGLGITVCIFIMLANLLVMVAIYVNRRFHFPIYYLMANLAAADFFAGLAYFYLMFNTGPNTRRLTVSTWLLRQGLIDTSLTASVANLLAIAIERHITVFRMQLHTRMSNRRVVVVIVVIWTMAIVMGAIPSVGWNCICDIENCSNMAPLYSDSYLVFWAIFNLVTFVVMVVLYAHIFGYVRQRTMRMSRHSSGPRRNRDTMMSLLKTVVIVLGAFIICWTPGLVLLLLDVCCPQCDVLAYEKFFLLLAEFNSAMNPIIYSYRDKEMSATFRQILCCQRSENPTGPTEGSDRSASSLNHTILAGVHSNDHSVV

`COc1ccc(NC(=O)N(c2ccccc2C(C)C)C2CCC(C(=O)O)CC2)c(OC(F)F)n1` (stereo not drawn) [PIPE-791] showed a pIC50 (human LPAR2) of 6.33, a pIC50 (human LPAR3) of 6.40 and a pIC50 (human LPAR4) of 6.22. The pIC50 (human LPAR5) was 6.94, the pIC50 (human LPAR6) was 6.09 and the “COL1A1 mRNA expression vs vehicle” value [1] was “significantly less expression”. The “COL3A1 mRNA expression vs vehicle” value [1] was “significantly less expression”, the “LPAR1 mRNA levels vs vehicle” value [1] was “not significantly affected” and the “SERPINE1 mRNA expression vs vehicle” value [1] was “significantly less expression”. For the same compound, the “TIMP1 mRNA expression vs vehicle” value [1] was “significantly less expression”, the “expression of fibrotic marker transcripts (COL1A1, COL3A1, SERPINE1, TIMP1, LPAR1)” value [2] was “did not alter the expression of any of the fibrotic marker transcripts tested” and the pIC50 (LPAR1) was 8.10.
